Assay results published in article PMC9227250, “Design, Synthesis and Cytotoxic Activity Evaluation of Newly Synthesized Amides-Based TMP Moiety as Potential Anticancer Agents over HepG2 Cells” (Molecules, 2022).

Columns and labels:
HepG2 cells = assay: MTT cytotoxicity assay against HepG2 cell line; type: cell-based; settings: Homo sapiens, mean of three independent replicates ± SE
Procedure: (§1) Cytotoxic activity was carried out using MTT colorimetric antiproliferative assay to investigate the effect of the prepared molecules on HepG2 as well as HL-7702 cell lines. See Section 4.3.1 in Supplementary Data.
(§2) 4.3.1. Cytotoxic activity evaluation
(§3) To measure the cytotoxic actvity of the amide derivatives 2-6e in hepatocellular carcinoma (HepG2) cell line (ATCC Cat No. HB-8065) as well as normal human liver cell line HL-7702 (ATCC Cat. No. 77402), cell viability assay was assessed using MTT assay method. Cells at density of 1 x 104 were seeded in a 96-well plate at 37 °C for 24 h under 5% CO2. After incubation, the cells were treated with different concentrations of the test schiff bases 2-6e and incubated for 24 h, then 20 µl of MTT solution at 5 mg/mL was applied and incubated for 4 h at 37 °C . Dimethyl sulphoxide (DMSO) in volume of 100 µl was added to each well to dissolve the purple formazan that had formed. The color intensity of the formazan product, which represents the growth condition of the cells, is quantified by using an ELISA plate reader (EXL 800, USA) at 450 nm absorbance. The experimental conditions were carried out with at least three replicates, and the experiments were repeated at least three times. […]

pan HDAC = system: pan HDAC; parameters: method as in doi:10.1039/D0NJ01274B; settings: read-out: pan HDAC inhibitory activity IC50; cited from earlier work
HL-7702 cells = assay: MTT cytotoxicity assay against normal liver cell line HL-7702; type: cell-based, human; settings: Homo sapiens, L02; MTT assay, normal liver cell line HL-7702, mean of three independent replicates ± SE
Procedure: as §1, §2, §3

HDAC1 = settings: cited from earlier work
β-tubulin = biological target: T1, β-tubulin (Homo sapiens, UniProt P07437+P68363); assay: Tubulin polymerization inhibition assay (Human Beta-tubulin ELISA kit); type: biochemical; settings: ELISA for β-tubulin, compared with untreated control cells
T1 construct: […]
T1 sequence (P07437 whole entry): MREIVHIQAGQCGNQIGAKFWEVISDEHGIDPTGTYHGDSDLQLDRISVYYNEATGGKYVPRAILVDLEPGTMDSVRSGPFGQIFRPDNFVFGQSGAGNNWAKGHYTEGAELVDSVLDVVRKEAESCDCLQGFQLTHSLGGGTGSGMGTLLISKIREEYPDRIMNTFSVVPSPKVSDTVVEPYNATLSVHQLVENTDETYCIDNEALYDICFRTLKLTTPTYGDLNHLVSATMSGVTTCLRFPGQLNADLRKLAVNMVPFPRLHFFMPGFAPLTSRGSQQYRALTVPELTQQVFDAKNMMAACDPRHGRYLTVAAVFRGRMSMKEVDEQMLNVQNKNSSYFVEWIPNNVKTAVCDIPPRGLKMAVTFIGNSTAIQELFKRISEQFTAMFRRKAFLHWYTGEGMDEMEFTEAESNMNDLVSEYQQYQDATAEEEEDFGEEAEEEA
T1 sequence (P68363 whole entry): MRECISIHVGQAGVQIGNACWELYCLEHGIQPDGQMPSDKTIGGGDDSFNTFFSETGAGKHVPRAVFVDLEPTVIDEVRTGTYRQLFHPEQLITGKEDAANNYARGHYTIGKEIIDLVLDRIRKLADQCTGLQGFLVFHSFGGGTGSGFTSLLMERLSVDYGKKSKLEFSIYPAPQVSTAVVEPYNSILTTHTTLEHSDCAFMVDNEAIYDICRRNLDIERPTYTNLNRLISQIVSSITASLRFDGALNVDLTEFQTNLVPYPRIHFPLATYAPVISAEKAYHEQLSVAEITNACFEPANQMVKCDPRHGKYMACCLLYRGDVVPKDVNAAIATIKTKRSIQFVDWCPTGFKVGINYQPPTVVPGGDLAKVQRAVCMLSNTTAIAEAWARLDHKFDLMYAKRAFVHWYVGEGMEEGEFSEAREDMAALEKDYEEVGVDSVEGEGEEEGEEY
Procedure: See Section 4.3.3 in Supplementary Data.
4.3.3. Tubulin inhibitions Assay […]
manufacturer’s instructions using # abcam Human Beta-tubulin simplestep ELISA Kit […]
Cell cycle analysis in HepG2 cells was investigated using fluorescent Annexin V - FITC/ PI detection kit (BioVision EZCellTM Cell Cycle Analysis Kit Catalog #K920) […]
After treatment, cells were washed twice in PBS, fixed in 70% ethanol, rinsed again with PBS. Cells were collected by centrifugation at 2000 rpm for 5 min and stained with DNA […]
The samples were immediately analyzed using Facs Calibur flow cytometer (Becton and Dickinson, Heidelberg, Germany).
Apoptosis in HepG2 cells was investigated using fluorescent Annexin V-FITC/ PI detection kit (BioVision Annexin V-FITC Apoptosis Detection Kit, Catalog #: K101) […]
immediately analyzed using FACS Calibur flow cytometer (Becton and Dickinson, […]
Caspase 3/7 in HepG2 cells was investigated using CellEvent® Caspase 3/7 Green Detection Flow Cytometry Assay Kit. Caspase 3/7 activity in HepG2 cell line was […]
CellEvent® caspase 3/7 green detection flow cytometry assay kit according to manufacturer’s directions. […]
harvested and washed with ice cold PBS, and cell lysates were prepared and […]

Compound | melting point [°C] | IC50 (HepG2 cells) [µM] | other results
COc1cc(C(=O)NC(=Cc2ccco2)C(=O)NNC(=O)c2cccc(O)c2)cc(OC)c1OC [Compound 4a, N-(1-(furan-2-yl)-3-(2-(3-hydroxybenzoyl)hydrazinyl)-3-oxoprop-1-en-2-yl)-3,4,5-trimethoxybenzamide] | 235 to 237 | 13.4 ± 0.56 | –
COc1cc(C(=O)NC(=Cc2ccco2)C(=O)Nc2cccc(Cl)c2)cc(OC)c1OC [Compound 2a, N-(3-(3-chlorophenylamino)-1-(furan-2-yl)-3-oxoprop-1-en-2-yl)-3,4,5-trimethoxybenzamide] | 248 to 250 | 68.9 ± 3.32 | –
Nc1ccccc1NC(=O)c1cnccn1 [BG45] | – | – | IC50 (pan HDAC): 5.51 µM
COc1cc(C(=O)NC(=Cc2ccc(C#N)cc2)C(=O)NNC(=O)/C(=C/c2ccco2)NC(=O)c2cc(OC)c(OC)c(OC)c2)cc(OC)c1OC [Compound 6b, N-((1Z)-3-(2-(3-(4-cyanophenyl)-2-(3,4,5-trimethoxybenzamido)acryloyl)hydrazinyl)-1-(furan-2-yl)-3-oxoprop-1-en-2-yl)-3,4,5-trimethoxybenzamide] | 223 to 225 | 0.92 ± 0.1 | IC50 (HL-7702 cells): 11.1 ± 0.18 µM
Cc1ccc(/C=N/NC(=O)c2ccc(NC(=O)c3cccnc3)cc2)cc1 [IV] | – | – | IC50 (pan HDAC): 4.65 µM
COc1ccc(C=C(NC(=O)c2cc(OC)c(OC)c(OC)c2)C(=O)NNC(=O)/C(=C/c2ccco2)NC(=O)c2cc(OC)c(OC)c(OC)c2)cc1 [Compound 6d, N-(3-(2-((Z)-3-(furan-2-yl)-2-(3,4,5-trimethoxybenzamido)acryloyl)hydrazinyl)-1-(4-methoxyphenyl)-3-oxoprop-1-en-2-yl)-3,4,5-trimethoxybenzamide] | 206 to 208 | 3.81 ± 0.18 | –
Nc1ccccc1NC(=O)c1ccc(C(C(=O)Nc2ccccc2)C(=O)Nc2ccccc2)cc1 [III] | – | – | fold potency for HDAC1 compared with HDAC2 (HDAC1): 10 fold; fold potency for HDAC1 compared with HDAC3 (HDAC1): 20 fold
COc1cc(C=C(NC(=O)c2cc(OC)c(OC)c(OC)c2)C(=O)NNC(=O)/C(=C/c2ccco2)NC(=O)c2cc(OC)c(OC)c(OC)c2)cc(OC)c1OC [Compound 6e, N-(3-(2-((Z)-3-(furan-2-yl)-2-(3,4,5-trimethoxybenzamido)acryloyl)hydrazinyl)-3-oxo-1-(3,4,5-trimethoxyphenyl)prop-1-en-2-yl)-3,4,5-trimethoxybenzamide] | 212 to 214 | 3.98 ± 0.09 | –
COc1ccc(/C=C\c2cc(OC)c(OC)c(OC)c2)cc1O [CA-4, combretastatin A-4, reference compound] | – | 0.54 ± 0.04 | tubulin polymerization percentage inhibition (β-tubulin): 88.72%; IC50 (HL-7702 cells): 8.86 ± 0.67 µM
COc1cc(C(=O)NC(=Cc2ccco2)C(=O)Nc2ccc(Cl)cc2)cc(OC)c1OC [Compound 2b, N-(3-(4-chlorophenylamino)-1-(furan-2-yl)-3-oxoprop-1-en-2-yl)-3,4,5-trimethoxybenzamide] | 241 to 243 | 23.3 ± 1.03 | –
COc1cc(C(=O)NC(=Cc2ccco2)C(=O)Nc2ccc3ccccc3c2)cc(OC)c1OC (hydrate or solvate) [Compound 3, N-(1-(furan-2-yl)-3-(naphthalen-2-ylamino)-3-oxoprop-1-en-2-yl)-3,4,5-trimethoxybenzamide] | 270 to 272 | – | –
COc1cc(C(=O)NC(=Cc2ccco2)C(=O)Nc2ccc(C)cc2)cc(OC)c1OC [Compound 2c, N-(1-(furan-2-yl)-3-oxo-3-(p-tolylamino)prop-1-en-2-yl)-3,4,5-trimethoxybenzamide] | 261 to 263 | 22 ± 0.96 | –
COc1cc(C(=O)NC(=Cc2ccc(N(C)C)cc2)C(=O)NNC(=O)/C(=C/c2ccco2)NC(=O)c2cc(OC)c(OC)c(OC)c2)cc(OC)c1OC [Compound 6c, N-((1Z)-3-(2-(3-(4-(dimethylamino)phenyl)-2-(3,4,5-trimethoxybenzamido)acryloyl)hydrazinyl)-1-(furan-2-yl)-3-oxoprop-1-en-2-yl)-3,4,5-trimethoxybenzamide] | 215 to 217 | 1.12 ± 0.12 | IC50 (HL-7702 cells): 9.88 ± 0.14 µM
COc1cc(C(=O)NC(=Cc2ccco2)C(=O)NNC(=O)c2ccncc2)cc(OC)c1OC [Compound 4b, N-(1-(furan-2-yl)-3-(2-isonicotinoylhydrazinyl)-3-oxoprop-1-en-2-yl)-3,4,5-trimethoxybenzamide] | 228 to 230 | 8.36 ± 0.51 | –
O=C(CCCCCCC(=O)Nc1ccccc1)NO [SAHA, suberoylanilide hydroxamic acid, reference compound] | – | 2.91 ± 0.15 | –
COc1cc(C(=O)NC(=Cc2ccco2)C(=O)Nc2ccc3ccccc3c2)cc(OC)c1OC [Compound 3, N-(1-(furan-2-yl)-3-(naphthalen-2-ylamino)-3-oxoprop-1-en-2-yl)-3,4,5-trimethoxybenzamide] | – | 16.2 ± 0.79 | –
COc1cc(C(=O)NC(=Cc2ccco2)C(=O)NNC(=O)c2ccc(NC(=O)c3cccnc3)cc2)cc(OC)c1OC [Compound 5, N-(4-(2-(3-(furan-2-yl)-2-(3,4,5 trimethoxybenzamido)acryloyl)hydrazinecarbonyl)phenyl)nicotinamide] | 217 to 219 | 3.25 ± 0.25 | –
